Experimental data taken from ChEMBL document CHEMBL3994622, “Design and synthesis of new RAF kinase-inhibiting antiproliferative quinoline derivatives. Part 2: Diarylurea derivatives” (Eur J Med Chem, 2017).

How the values were obtained:
Format in all cases: functional
NCI-H322M = test: Growth inhibition of human NCI-H322M cells assessed as cell growth at 0.03 uM incubated for 48 hrs by sulforhodamine B assay relative to control; conditions: read-out: Activity
786-0 = test: Growth inhibition of human 786-0 cells assessed as cell growth at 0.03 uM incubated for 48 hrs by sulforhodamine B assay relative to control; conditions: 786-0, 48 h, read-out: Activity
U-251 = test: Growth inhibition of human U251 cells assessed as cell growth at 3 uM incubated for 48 hrs by sulforhodamine B assay relative to control; conditions: U-251, 48 h, read-out: Activity
NCI-H226 [1] = test: Growth inhibition of human NCI-H226 cells assessed as cell growth at 0.003 uM incubated for 48 hrs by sulforhodamine B assay relative to control; conditions: NCI-H226, 48 h, read-out: Activity
Malme-3M = test: Growth inhibition of human MALME-3M cells assessed as cell growth at 30 uM incubated for 48 hrs by sulforhodamine B assay relative to control; conditions: read-out: Activity
TK-10 = test: Growth inhibition of human TK10 cells assessed as cell growth at 0.3 uM incubated for 48 hrs by sulforhodamine B assay relative to control; conditions: TK-10, 48 h, read-out: Activity
MDA-MB-231 = test: Growth inhibition of human MDA-MB-231 cells assessed as cell growth at 0.03 uM incubated for 48 hrs by sulforhodamine B assay relative to control; conditions: MDA-MB-231, 48 h, read-out: Activity
PC-3 [2] = test: Growth inhibition of human PC3 cells assessed as cell growth at 0.003 uM incubated for 48 hrs by sulforhodamine B assay relative to control; conditions: PC-3, 48 h, read-out: Activity
UACC-62 [3] = test: Growth inhibition of human UACC62 cells assessed as cell growth at 0.003 uM incubated for 48 hrs by sulforhodamine B assay relative to control; conditions: UACC-62, 48 h, read-out: Activity
SK-OV-3 = test: Growth inhibition of human SKOV3 cells assessed as cell growth at 30 uM incubated for 48 hrs by sulforhodamine B assay relative to control; conditions: SK-OV-3, 48 h, read-out: Activity
SW-620 = test: Growth inhibition of human SW620 cells assessed as cell growth at 0.003 uM incubated for 48 hrs by sulforhodamine B assay relative to control; conditions: SW-620, 48 h, read-out: Activity
HCC 2998 [4] = test: Growth inhibition of human HCC2998 cells assessed as cell growth at 0.03 uM incubated for 48 hrs by sulforhodamine B assay relative to control; conditions: HCC 2998, 48 h, read-out: Activity
Hs-578T [5] = test: Growth inhibition of human Hs 578T cells assessed as cell growth at 0.003 uM incubated for 48 hrs by sulforhodamine B assay relative to control; conditions: read-out: Activity
DU-145 = test: Growth inhibition of human DU145 cells assessed as cell growth at 3 uM incubated for 48 hrs by sulforhodamine B assay relative to control; conditions: DU-145, 48 h, read-out: Activity
HCC 2998 [6] = test: Growth inhibition of human HCC2998 cells assessed as cell growth at 30 uM incubated for 48 hrs by sulforhodamine B assay relative to control; conditions: HCC 2998, 48 h, read-out: Activity
UACC-62 [7] = test: Growth inhibition of human UACC62 cells assessed as cell growth at 0.03 uM incubated for 48 hrs by sulforhodamine B assay relative to control; conditions: UACC-62, 48 h, read-out: Activity
OVCAR-5 = test: Growth inhibition of human OVCAR5 cells assessed as cell growth at 0.03 uM incubated for 48 hrs by sulforhodamine B assay relative to control; conditions: OVCAR-5, 48 h, read-out: Activity
HL-60(TB) [8] = test: Growth inhibition of human HL-60(TB) cells assessed as cell growth at 3 uM incubated for 48 hrs by sulforhodamine B assay relative to control; conditions: HL-60, 48 h, read-out: Activity
A498 [9] = test: Growth inhibition of human A498 cells assessed as cell growth at 0.03 uM incubated for 48 hrs by sulforhodamine B assay relative to control; conditions: A498, 48 h, read-out: Activity
EKVX = test: Growth inhibition of human EKVX cells assessed as cell growth at 1 uM incubated for 48 hrs by sulforhodamine B assay relative to control; conditions: read-out: Activity
SR = test: Growth inhibition of human SR cells assessed as cell growth at 0.01 uM incubated for 48 hrs by sulforhodamine B assay relative to control; conditions: read-out: Activity
Hs-578T [10] = test: Growth inhibition of human Hs 578T cells assessed as cell growth at 100 uM incubated for 48 hrs by sulforhodamine B assay relative to control; conditions: read-out: Activity
LOX IMVI = test: Growth inhibition of human LOXIMVI cells assessed as cell growth at 0.1 uM incubated for 48 hrs by sulforhodamine B assay relative to control; conditions: read-out: Activity
HL-60(TB) [11] = test: Growth inhibition of human HL-60(TB) cells assessed as cell growth at 0.01 uM incubated for 48 hrs by sulforhodamine B assay relative to control; conditions: HL-60, 48 h, read-out: Activity
SNB-19 = test: Growth inhibition of human SNB19 cells assessed as cell growth at 0.1 uM incubated for 48 hrs by sulforhodamine B assay relative to control; conditions: SNB-19, 48 h, read-out: Activity
A498 [12] = test: Growth inhibition of human A498 cells assessed as cell growth at 10 uM incubated for 48 hrs by sulforhodamine B assay relative to control; conditions: A498, 48 h, read-out: Activity
MCF7 = test: Growth inhibition of human MCF7 cells assessed as cell growth at 100 uM incubated for 48 hrs by sulforhodamine B assay relative to control; conditions: MCF7, 48 h, read-out: Activity
UACC-257 = test: Growth inhibition of human UACC257 cells assessed as cell growth at 10 uM incubated for 48 hrs by sulforhodamine B assay relative to control; conditions: UACC-257, 48 h, read-out: Activity
IGROV-1 = test: Growth inhibition of human IGROV1 cells assessed as cell growth at 0.01 uM incubated for 48 hrs by sulforhodamine B assay relative to control; conditions: IGROV-1, 48 h, read-out: Activity
A498 [13] = test: Growth inhibition of human A498 cells assessed as cell growth at 0.1 uM incubated for 48 hrs by sulforhodamine B assay relative to control; conditions: A498, 48 h, read-out: Activity
OVCAR-3 = test: Growth inhibition of human OVCAR3 cells assessed as cell growth at 0.1 uM incubated for 48 hrs by sulforhodamine B assay relative to control; conditions: OVCAR-3, 48 h, read-out: Activity
PC-3 [14] = test: Growth inhibition of human PC3 cells assessed as cell growth at 0.01 uM incubated for 48 hrs by sulforhodamine B assay relative to control; conditions: PC-3, 48 h, read-out: Activity
NCI/ADR-RES = test: Growth inhibition of human NCI/ADR-RES cells assessed as cell growth at 0.1 uM incubated for 48 hrs by sulforhodamine B assay relative to control; conditions: read-out: Activity
NCI-H226 [15] = test: Growth inhibition of human NCI-H226 cells assessed as cell growth at 0.01 uM incubated for 48 hrs by sulforhodamine B assay relative to control; conditions: NCI-H226, 48 h, read-out: Activity
PC-3 [16] = test: Growth inhibition of human PC3 cells assessed as cell growth at 0.1 uM incubated for 48 hrs by sulforhodamine B assay relative to control; conditions: PC-3, 48 h, read-out: Activity

Structure (SMILES) | growth at 0.03 µM (NCI-H322M) | growth at 0.03 µM (786-0) | growth at 3 µM (U-251) | growth at 0.003 µM (NCI-H226 [1]) | growth at 30 µM (Malme-3M) | growth at 0.3 µM (TK-10) | growth at 0.03 µM (MDA-MB-231) | growth at 0.003 µM (PC-3 [2]) | growth at 0.003 µM (UACC-62 [3]) | growth at 30 µM (SK-OV-3) | growth at 0.003 µM (SW-620) | growth at 0.03 µM (HCC 2998 [4]) | growth at 0.003 µM (Hs-578T [5]) | growth at 3 µM (DU-145) | growth at 30 µM (HCC 2998 [6]) | growth at 0.03 µM (UACC-62 [7]) | growth at 0.03 µM (OVCAR-5) | growth at 3 µM (HL-60(TB) [8]) | growth at 0.03 µM (A498 [9]) | growth at 1 µM (EKVX) | also measured
COc1cc2cc(Oc3ccc(NC(=O)Nc4ccc(Cl)c(C(F)(F)F)c4)cc3)c(C)nc2cc1OC | 90% | 83% | 6% | 96% | -37% | 100% | 92% | 95% | 96% | -51% | 95% | 106% | 83% | 17% | -98% | 92% | 102% | -2% | 68% |  | 
COc1cc2cc(Oc3ccc(NC(=O)Nc4ccc(Cl)c(Cl)c4)cc3)c(C)nc2cc1OC |  |  |  |  |  |  |  |  |  |  |  |  |  |  |  |  |  |  |  | 81% | growth at 0.01 µM (SR): 107%; growth at 100 µM (Hs-578T [10]): -45%; growth at 0.1 µM (LOX IMVI): 96%; growth at 0.01 µM (HL-60(TB) [11]): 104%; growth at 0.1 µM (SNB-19): 93%; growth at 10 µM (A498 [12]): -8%; growth at 100 µM (MCF7): -50%; growth at 10 µM (UACC-257): -23%; growth at 0.01 µM (IGROV-1): 110%; growth at 0.1 µM (A498 [13]): 86%; growth at 0.1 µM (OVCAR-3): 116%; growth at 0.01 µM (PC-3 [14]): 96%; growth at 0.1 µM (NCI/ADR-RES): 100%; growth at 0.01 µM (NCI-H226 [15]): 104%; growth at 0.1 µM (PC-3 [16]): 95%
Cc1nc2cc(O)c(O)cc2cc1Oc1ccc(NC(=O)Nc2ccc(Cl)c(Cl)c2)cc1 | 108% | 95% | 71% | 101% | -10% | 98% | 115% | 104% | 96% | 7% | 100% | 99% | 93% | 82% | -51% | 97% | 100% | 106% | 75% |  | 
COc1cc2cc(Oc3ccc(NC(=O)Nc4cc(C(F)(F)F)cc(C(F)(F)F)c4)cc3)c(C)nc2cc1OC |  |  |  |  |  |  |  |  |  |  |  |  |  |  |  |  |  |  |  | 50% | growth at 0.01 µM (SR): 92%; growth at 100 µM (Hs-578T [10]): -9%; growth at 0.1 µM (LOX IMVI): 95%; growth at 0.01 µM (HL-60(TB) [11]): 89%; growth at 0.1 µM (SNB-19): 97%; growth at 10 µM (A498 [12]): -43%; growth at 100 µM (MCF7): -73%; growth at 10 µM (UACC-257): -38%; growth at 0.01 µM (IGROV-1): 96%; growth at 0.1 µM (A498 [13]): 93%; growth at 0.1 µM (OVCAR-3): 101%; growth at 0.01 µM (PC-3 [14]): 92%; growth at 0.1 µM (NCI/ADR-RES): 96%; growth at 0.01 µM (NCI-H226 [15]): 103%; growth at 0.1 µM (PC-3 [16]): 89%
